Laboratory results published in paper PMC8623273, “Novel N7-Arylmethyl Substituted Dinucleotide mRNA 5′ cap Analogs: Synthesis and Evaluation as Modulators of Translation” (Pharmaceutics, 2021).

Experiments:
[1] = target: eukaryotic translation initiation factor 4E (eIF4E) (Mus musculus, UniProt P63073); test: pyrene-probe fluorescent competitive-binding assay (PyFLINT-B) for cap analog-eIF4E; conditions: for EC50: Table S2; for effect of the N7 substituent on eIF4E binding (in words): compared to m^7GpppG / 1a or unmodified counterpart; for Kd: pyrene-based high-throughput competition assay, 30 °C, KD calculated from EC50, read-out: KD Cap-eIF4E ± SD
eukaryotic translation initiation factor 4E (eIF4E), sequence (P63073 whole entry): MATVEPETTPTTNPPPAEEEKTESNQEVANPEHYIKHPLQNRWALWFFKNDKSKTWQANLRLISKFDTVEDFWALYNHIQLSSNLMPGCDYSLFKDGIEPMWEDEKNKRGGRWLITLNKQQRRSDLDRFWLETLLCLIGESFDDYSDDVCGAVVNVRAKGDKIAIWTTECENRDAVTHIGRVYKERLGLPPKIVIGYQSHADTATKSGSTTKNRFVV
From the text: (§1) High affinity for eIF4E is a desirable feature of cap analogs designed for modulating translation, either as small molecules or as a part of mRNA. Thus, we studied how different substituents at the N7-position affected eIF4E-cap interaction. To this end, we first determined the affinity of m^7GpppG and Bn^7GpppG (1a) using time-synchronized fluorescence quenching titration, a very precise and well-established, but low-throughput method. Next, to evaluate the whole set of the synthesized compounds (1a–1r), we used a high-throughput competitive-binding assay based on a pyrene-labeled fluorescent probe. From this assay we determined relative affinities of the compounds represented by half-effective concentrations (EC50) (Figure 3A–C), which were then used to calculate dissociation constant (KD) values for cap analog–eIF4E complexes using previously reported equations (Table 2, Figure 3D).
To determine the dissociation constants of the library of N7-benzylated dinucleotide 5′ cap analogs for translation initiation factor 4E, a fluorescent competitive-binding assay (PyFLINT-B) was applied as previously described. The experiments were performed on a Synergy™ H1 plate reader in 96-well, black, non-binding assay plates. Each well contained an appropriate buffer (50 mM Hepes/KOH pH 7.2, 100 mM KCl and 0.5 mM EDTA), pyrene probe m^7Gp5C4Py (10 nM), substrate (in half-logarithmic dilutions from 850 μM to 0.03 μM for compound 1m and from 100 μM to 0.003 μM for m^7GpppG and the rest of the compounds) and protein eIF4E (75 nM). The m^7Gp5C4Py was synthesized as describer earlier. The pyrene probe was dissolved in water and concentration was determined spectrometrically at 345 nm using the extinction coefficient (21,000 M^−1 cm^−1). The eIF4E protein was centrifuged after defrosting (5 min, 4 °C, 10k rcf) and its concentration was determined spectrometrically at 280 nm using the extinction coefficient (52,940 M^−1 cm^−1). The reaction mixtures were preincubated (15 min, 300 rpm, 30 °C). All measurements were performed at 30 °C and the fluorescence detection at 345 nm excitation and 378 nm emission was recorded.
To determine EC50 values, GraphPad Prism 9.1.2 software was used. To fit the curves to the obtained data we used the following formula:(1) Y=Bottom+ Top−Bottom/1+ X/EC50 where: X, cap analog (ligand) concentration; EC50, concentration of the cap analog resulting in half-maximal response from the fluorescent probe–protein complex; Bottom, minimal signal from the negative control, which contains only the free probe; Top, maximal signal from the positive control, the mixture of the protein and the fluorescent probe.
The dissociation constants KD were then calculated using the equation described by Nikolovska-Coleska et al.:(2) KD=EC50−Pt+PL50KD_probe/L50+1/L50/KD_probe+P0/KD_probe+1 where: EC50, concentration of the cap analog resulting in half-maximal response from the fluorescent probe–protein complex; [Pt], total protein concentration; [PL]50, concentration of the probe–protein complex at 50% inhibition; KD_probe, dissociation constant of the complex between the fluorescent probe and the protein; [L]50, probe concentration at 50% inhibition; [P]0, free protein concentration at 0% inhibition.

A549 cells = test: translational efficiency of mRNAs capped with the analogs in A549 cells (Gaussia luciferase); format: cell-based
Method: Finally, we tested the properties of arylmethyl cap analogs as reagents for co-transcriptional mRNA capping. […] Here, we sought to evaluate the translational properties of mRNAs capped with N7-arylmethyl analogs in cultured cells. To that end, the translation properties of transcripts capped with selected analogs were assessed in A549 cells. In vitro transcribed mRNAs encoding Gaussia luciferase, capped with compounds 1a–1k, 1m–1n, and 1p–1r or with reference analogues m^7GpppG and ARCA (m^7GmpppG), were purified via RP HPLC, transfected into A549 cells, and the protein activity (luminescence) was measured using a reporter assay at 72 h post-transfection. The total amount of protein produced over 72 h from each capped RNA was normalized to m^7GpppG RNA (Figure 6 and Figure S4). […] Namely, replacing the N7-methyl group with a benzyl moiety (1a) increased protein production over fivefold in A549 cells compared to m^7GpppG-capped mRNA (Figure 6).
The influence of N7-arylmethylated dinucleotide 5′ cap analogues on the translational properties of HPLC-purified IVT mRNA is shown in Figure S4, Measurements are total protein produced over 72 h by A549 cells transfected with capped mRNAs. Each plot in Figure S4 represents a single experiment consisting of three independent transfections of the cells at the same passage. Bars show mean value normalized to […] ± SD. In the main manuscript, all nine data points from three different cell passages were combined to present cumulative protein expression.

eIF4E = eIF4E (Mus musculus, UniProt P63073); test: time-synchronized fluorescence quenching titration with eIF4E; format: binding; conditions: 50 mM Hepes pH 7.2, 134.5 mM KCl, 20 °C, read-out: KD Cap-eIF4E ± SD (value in brackets) (converted)
eIF4E, sequence (P63073 whole entry): as above
From the text: as §1

[2] = tested on: translation in vitro (RRL); parameters: method as in PMID 15317978; conditions: cap incorporated into mRNA; cited from earlier work

| SMILES | EC50 [1] [nM] | effect of the N7 substituent on eIF4E binding (in words) [1] | Kd [1] [nM] | further results |
| --- | --- | --- | --- | --- |
| CO[C@@H]1[C@H](O)[C@@H](COP(=O)(O)OP(=O)([O-])OP(=O)(O)OC[C@H]2O[C@@H](n3cnc4c(=O)[nH]c(N)nc43)[C@H](O)[C@@H]2O)O[C@H]1n1c[n+](Cc2ccccc2)c2c(O)nc(N)nc21 [1q, Bn^7GmpppG] | 2000 | twofold increase in cap-binding affinity | 171 ± 25 | change of protein expression of ARCA analog compared to 2'-O-unmethylated counterpart (1q vs 1a, 1r vs 1h) (A549 cells; A549 cells, 72 h): additional twofold increase |
| CC(C)c1ccc(C[n+]2cn([C@@H]3O[C@H](COP(=O)(O)OP(=O)([O-])OP(=O)(O)OC[C@H]4O[C@@H](n5cnc6c(=O)[nH]c(N)nc65)[C@H](O)[C@@H]4O)[C@@H](O)[C@H]3O)c3nc(N)nc(O)c32)cc1 [1e, 4-iPrBn^7GpppG] | 6200 | KD increased more than double | 534 ± 100 | – |
| Nc1nc(O)c2c(n1)n([C@@H]1O[C@H](COP(=O)(O)OP(=O)([O-])OP(=O)(O)OC[C@H]3O[C@@H](n4cnc5c(=O)[nH]c(N)nc54)[C@H](O)[C@@H]3O)[C@@H](O)[C@H]1O)c[n+]2Cc1ccc(F)cc1 [1g, 4-F-Bn^7GpppG] | 3100 | – | 261 ± 54 | – |
| Nc1nc(O)c2c(n1)n([C@@H]1O[C@H](COP(=O)(O)OP(=O)([O-])OP(=O)(O)OC[C@H]3O[C@@H](n4cnc5c(=O)[nH]c(N)nc54)[C@H](O)[C@@H]3O)[C@@H](O)[C@H]1O)c[n+]2Cc1ccccc1 [1a, Bn^7GpppG] | – | – | 217 ± 36 | Kd (eIF4E): 107 nM; increase of protein production compared to m^7GpppG-capped mRNA (A549 cells; A549 cells, 72 h): over fivefold; translation efficiency in vitro relative to m^7GpppG-capped mRNAs [2]: almost twofold higher |
| Nc1nc(O)c2c(n1)n([C@@H]1O[C@H](COP(=O)(O)OP(=O)([O-])OP(=O)(O)OC[C@H]3O[C@@H](n4cnc5c(=O)[nH]c(N)nc54)[C@H](O)[C@@H]3O)[C@@H](O)[C@H]1O)c[n+]2Cc1ccc(C(F)(F)F)cc1 [1l, 4-CF3-Bn^7GpppG] | – | – | 293 ± 43 | – |
| Cc1cccc(C[n+]2cn([C@@H]3O[C@H](COP(=O)(O)OP(=O)([O-])OP(=O)(O)OC[C@H]4O[C@@H](n5cnc6c(=O)[nH]c(N)nc65)[C@H](O)[C@@H]4O)[C@@H](O)[C@H]3O)c3nc(N)nc(O)c32)c1 [1c, 3-MeBn^7GpppG] | 3700 | – | 319 ± 55 | – |
| Nc1nc(O)c2c(n1)n([C@@H]1O[C@H](COP(=O)(O)OP(=O)([O-])OP(=O)(O)OC[C@H]3O[C@@H](n4cnc5c(=O)[nH]c(N)nc54)[C@H](O)[C@@H]3O)[C@@H](O)[C@H]1O)c[n+]2Cc1ccc(Cl)cc1 [1h, 4-Cl-Bn^7GpppG] | 2600 | – | 221 ± 37 | increase of protein production compared to ARCA (A549 cells; A549 cells, 72 h): 2.5 fold |
| Nc1nc(O)c2c(n1)n([C@@H]1O[C@H](COP(=O)(O)OP(=O)([O-])OP(=O)(O)OC[C@H]3O[C@@H](n4cnc5c(=O)[nH]c(N)nc54)[C@H](O)[C@@H]3O)[C@@H](O)[C@H]1O)c[n+]2Cc1ccc(F)c(F)c1 [1k, 3,4-di-F-Bn^7GpppG] | 5700 | – | 489 ± 77 | – |
| Nc1nc(O)c2c(n1)n([C@@H]1O[C@H](COP(=O)(O)OP(=O)([O-])OP(=O)(O)OC[C@H]3O[C@@H](n4cnc5c(=O)[nH]c(N)nc54)[C@H](O)[C@@H]3O)[C@@H](O)[C@H]1O)c[n+]2Cc1ccc(Br)cc1 [1i, 4-Br-Bn^7GpppG] | 2000 | – | 172 ± 26 | – |
| CO[C@@H]1[C@H](O)[C@@H](COP(=O)(O)OP(=O)([O-])OP(=O)(O)OC[C@H]2O[C@@H](n3cnc4c(=O)[nH]c(N)nc43)[C@H](O)[C@@H]2O)O[C@H]1n1c[n+](Cc2ccc(Cl)cc2)c2c(O)nc(N)nc21 [1r, 4-Cl-Bn^7GmpppG] | 1600 | twofold increase in cap-binding affinity | 132 ± 20 | change of protein expression of ARCA analog compared to 2'-O-unmethylated counterpart (1q vs 1a, 1r vs 1h) (A549 cells; A549 cells, 72 h): decreased the protein expression by twofold |
| Cn1c[n+]([C@@H]2O[C@H](COP(=O)(O)OP(=O)([O-])OP(=O)(O)OC[C@H]3O[C@@H](n4cnc5c(=O)[nH]c(N)nc54)[C@H](O)[C@@H]3O)[C@@H](O)[C@H]2O)c2nc(N)[nH]c(=O)c21 [m^7GpppG, reference compound] | 2700 ± 300 | – | 229 ± 37 | Kd (eIF4E): 160 nM; Rel. Protein Expression (A549 cells; mRNA capped with the analog, Gaussia luciferase activity in A549 cells 72 h post-transfection, normalized to m^7GpppG RNA): 1.0 |
| Nc1nc(O)c2c(n1)n([C@@H]1O[C@H](COP(=O)(O)OP(=O)([O-])OP(=O)(O)OC[C@H]3O[C@@H](n4cnc5c(=O)[nH]c(N)nc54)[C@H](O)[C@@H]3O)[C@@H](O)[C@H]1O)c[n+]2Cc1ccc([N+](=O)[O-])cc1 [1n, 4-NO2-Bn^7GpppG] | 4300 | accepted by the protein | 367 ± 71 | – |
